Structures are written as SMILES. Where two headings read alike, the source gives them in different places. Starred links: 1 amine or outer side, 2 acyl side, 3 side chain; linkers in the order of their positions; H or OH if unused. Non-standard residues stand in square brackets, D forms with d. Residues, ends and D or L forms follow the SMILES beside them. azaPhe = O=C(N(Cc1ccccc1)N[*:1])[*:2]; azaLeu = CC(C)CN(N[*:1])C(=O)[*:2]; X1 = O=C(N(CC1CCCCC1)N[*:1])[*:2]; azaPro = O=C(N1CCCN1[*:1])[*:2]

One assay concerns the target CD36 (Rattus norvegicus (Rat), UniProt Q07969). The assay can be described thus: CD36 receptor covalent photolabelling binding assay, competition with [125I]Tyr-Bpa-Ala-hexarelin on rat cardiac membranes. The following applies: for binding activity/affinity at CD36 in words: compared with parent peptide GHRP-6 or hexarelin. The procedure:
The hearts from Sprague Dawley rats (300 g-325 g) from Charles River, used as a source of cardiac membranes, were prepared as follows: the heart was washed with ice-cold saline, and fatty and connective tissue was removed. The tissue was cut into small pieces with scissors and placed in a Sorvall centrifuge tube containing 5 ml/g of fresh tissue of Buffer A (10 mM NaHCO3, 5 mM NaN3, 10 μM Pefabloc, 0.1 μM Aprotinin, 1 μM Pepstatin A, 1 μM Leupeptin, pH 7.0). The suspension was homogenized with a Polytron at low speed, 3×15 sec. The homogenate was centrifuged at 8 700×g for 20 min and the supernatant was put on ice. The pellet was resuspended and homogenized with a Glass-teflon Potter by 5 strokes. The homogenate was centrifuged at 8 700×g for 10 min and this supernatant was combined with the first supernatant. The supernatant fluid was centrifuged at 35 000×g for 20 min, yielding a second pellet fraction that was suspended thoroughly in a glass homogenizer with a Teflon pestle in 20 ml/g of fresh tissue of Buffer B (20 mM Tris-maleate, 0.6M KCl, pH 6.8). The resulting suspension was centrifuged again at 35 000×g for 60 min. The third pellet fraction was resuspended thoroughly in a glass homogenizer with a Teflon pestle in 20 ml/g of fresh tissue of Buffer C (10 mM Tris/HCl buffer pH 7.4) followed with another centrifugation at 35 000×g for 60 min. The harvested precipitate was then suspended in a small volume (1-2 ml/g of fresh tissue) of 50 mM Tris/HCl buffer pH 7.4) containing 2 mM EGTA. The resulting membrane preparation was frozen at −80° C. Protein concentration was determined with bicinchoninic acid (BCA) method, using BSA as standard.
The iodination procedure was performed in the darkness. […] The reaction was started by adding 5 ul (3 nmol) of H2O2. The incubation was carried out at 22° C. for 5 min. The addition of H2O2 was repeated twice with 5 min incubation each time. The reaction was stopped with the addition of 1.4 ml of 0.1% TFA. The iodinated peptide was purified on a reverse-phase Vydac C18 column with a 60 min linear gradient (1 ml/min) from 20% to 50% acetonitrile (90%) in 0.1% TFA (10%).
Nonspecific binding was defined as binding not displaced by 50 μM corresponding peptide. All peptide containing solutions were diluted in Buffer B. Buffer A and B were degassed under vacuum, and used in capped tubes in order to minimize lipid peroxydation. Before the incubation period, all tubes were put under a low flow of nitrogen. All material was kept on ice and the binding assay was performed in darkness. After an incubation period of 60 min at 22° C. […] After centrifugation at 12 000×g for 15 minutes, the pellets were resuspended in 150 μl of sample buffer (62 mM Tris-HCl, pH 6.8, 2% SDS, 10% glycerol, 15% 2-mercapto-ethanol, and 0.05% bromophenol blue), and boiled for 5 min prior to being subjected to electrophoresis. Proteins (200 μg/100 μl) were separated on 7.5% SDS-PAGE (45 V overnight). The gels resulting from SDS/PAGE were fixed, colored in Coomassie Brilliant Blue R-250, dried, exposed to a storage phosphor intensifying screen (Amersham Biosciences), and analysed by using a Typhoon PhosphorImager (Amersham Biosciences) and ImageQuant 5.0 software to establish competition curves. Protein bands were quantified by densitometry. The covalent binding signal of 87 kDa was analyzed by densitometry using Typhoon Phospholmager™ (Typhoon, Amersham Biosciences) and ImageQuant 5.0® software to set competition curves.
Specific binding activities were defined as the ratio of the density of the protein band to that of a non-specific band. Results are expressed as the percentage of the density of the […] to that of the total binding band.

The target of a further assay is human GHS-R1a (Homo sapiens (Human), UniProt Q92847). The assay can be described thus: GHS-R1a binding assay, competition with 125I-ghrelin on membranes of LLC-PK1 cells expressing human GHS-R1a. The following applies: for binding affinity for GHS-R1a receptor in words: compared with GHRP-6.
Assay [1] concerns vascular sprouting of aortic endothelium (aortic rings). The assay can be described thus: Inhibition of microvascular sprouting from Matrigel-embedded aortic explants. The class given is cell-based, mice. As to conditions: preliminary data; compared with GHRP-6. The text has this: FIG. 1 illustrates disruption of vascular sprouting of aortic endothelium by azapeptide compound DBG178. Sprouting aortic endothelium (Von Willebrand factor positive) expressing CD36 is shown in the upper row of FIG. 1a. Vascular sprouting of aortic rings from C57BL/6 and CD36 null mice in the presence of DBG 178 at 10^−7M is shown in the lower row of FIG. 1a. Histograms of microvascular sprouts areas (mean±s.e.m) from aortic explants of C57BL/6 and CD36 null mice exposed to DBG concentrations from 10^−8 to 10^−6 M p<0.01 compared with control (Ctl) is shown in FIG. 1b.
Aortas were excised from 10-week-old male C57/Bl6+/+ and CD36−/− mice of C57/Bl6 background. The fibroadipose tissue was removed and aortas were sectioned into 2-mm-long cross-sections. The +/+ and −/− rings were covered by 50 μl of Matrigel and cultured for 4 days in EGM-2 medium (Clonetics Corp.). Explants were then exposed to vehicle alone or in presence of an azapeptide prototype DBG178 at the indicated concentrations (10^−8 to 10^−6 M) from day 4 to day 6 of culture in EGM-2 medium. Pictures of each individual explant were taken at day 4 and day 6 and EC growth was measured as the surface covered at day 6 minus the surface covered at day 4 Data were subject to analysis of variance (ANOVA) followed by Dunnet's post test to test for differences among groups. Outgrowing cells were characterized by double-labelling with monoclonal vWF antibody (1:100, Dako) and polyclonal CD36 (1:100, Santa Cruz) after acetone fixation using their respective alexa coupled secondary antibodies.

Setting [2] is: Table 3, rat cardiac membranes, [125I]Tyr-Bpa-Ala-hexarelin as radioligand, read-out: IC50, binding affinity of aza peptide derivatives towards CD36.
[3] abbreviates: Table 4, LLCPK-1 membranes overexpressing GHS-R1a, radioiodinated (1-28) rat ghrelin as tracer, read-out: EC50 (text: IC50 values from competition curves in GHS-R1a radioreceptor assay).
Where [4] appears, read: Table 6, read-out: IC50 Binding CD36.

Sequence of human GHS-R1a (Q92847 whole entry): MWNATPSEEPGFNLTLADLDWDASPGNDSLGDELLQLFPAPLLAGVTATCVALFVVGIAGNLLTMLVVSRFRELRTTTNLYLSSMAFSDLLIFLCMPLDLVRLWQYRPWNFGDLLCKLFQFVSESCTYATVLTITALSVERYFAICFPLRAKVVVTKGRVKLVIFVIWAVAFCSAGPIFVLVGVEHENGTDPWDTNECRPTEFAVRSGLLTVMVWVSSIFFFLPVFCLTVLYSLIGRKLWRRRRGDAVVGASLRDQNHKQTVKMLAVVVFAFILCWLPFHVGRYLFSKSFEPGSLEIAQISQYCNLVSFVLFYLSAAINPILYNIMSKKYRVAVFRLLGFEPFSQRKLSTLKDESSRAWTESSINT
Sequence of CD36 (Q07969 whole entry): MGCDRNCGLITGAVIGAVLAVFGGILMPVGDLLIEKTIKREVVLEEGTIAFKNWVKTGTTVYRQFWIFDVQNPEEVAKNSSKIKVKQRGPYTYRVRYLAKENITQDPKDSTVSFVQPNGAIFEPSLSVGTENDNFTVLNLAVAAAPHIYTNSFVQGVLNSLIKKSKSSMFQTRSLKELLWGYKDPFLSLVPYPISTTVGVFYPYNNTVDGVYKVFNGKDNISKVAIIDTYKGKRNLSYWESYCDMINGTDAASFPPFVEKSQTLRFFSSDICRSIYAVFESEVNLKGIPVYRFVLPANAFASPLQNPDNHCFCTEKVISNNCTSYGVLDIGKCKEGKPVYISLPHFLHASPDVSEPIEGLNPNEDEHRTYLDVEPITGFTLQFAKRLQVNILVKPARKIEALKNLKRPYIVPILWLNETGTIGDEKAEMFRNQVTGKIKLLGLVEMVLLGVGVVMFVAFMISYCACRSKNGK

On to `CC(C)CN(NC(=O)[C@@H](Cc1c[nH]c2ccccc12)NC(=O)[C@@H](N)Cc1cnc[nH]1)C(=O)N[C@@H](Cc1c[nH]c2ccccc12)C(=O)N[C@H](Cc1ccccc1)C(=O)N[C@@H](CCCCN)C(N)=O` [DBG201-A, His-D-Trp-azaLeu-Trp-D-Phe-Lys-NH2] (H-H[dW][azaLeu]W[dF]K-NH2), for which the half-maximal inhibitory concentration (IC50) worked out at 2890 nM on CD36 (setting [2]) and 1200 nM on human GHS-R1a (setting [3]). Moreover, the “binding activity/affinity at CD36 in words” value (“binding activity/affinity” for short) at CD36 is reported as “retained significant activity similar to the parent peptide”. Moreover, in assay [1], the “ex vivo inhibition of neovascularization in aortic rings” value is reported as “most potent inhibitory effect”.
Turning to `C[C@H](NC(=O)N(CC1CCCCC1)NC(=O)[C@@H](N)Cc1cnc[nH]1)C(=O)N[C@@H](Cc1c[nH]c2ccccc12)C(=O)N[C@H](Cc1ccccc1)C(=O)N[C@@H](CCCCN)C(N)=O` [DBG253-13, His-azaCha-Ala-Trp-D-Phe- Lys-NH2] (H-H[X1]AW[dF]K-NH2), the IC50 on CD36 (setting [2]) was > 10000 nM; on human GHS-R1a (setting [3]) it was 5490 nM.
`C[C@H](NC(=O)[C@@H](Cc1c[nH]c2ccccc12)NC(=O)[C@@H](N)Cc1cnc[nH]1)C(=O)NN(Cc1ccccc1)C(=O)N[C@H](Cc1ccccc1)C(=O)N[C@@H](CCCCN)C(N)=O` [DBG253-1, His-D-Trp-Ala-azaPhe-D-Phe-Lys-NH2] (H-H[dW]A[azaPhe][dF]K-NH2): the concentration for half-maximal inhibition (IC50) at CD36 (setting [2]) was 1340 nM; on human GHS-R1a (setting [3]) it was 2770 nM. The “binding activity/affinity” value on CD36 is “maintaining the binding activity”. The “binding affinity for GHS-R1a receptor in words” value at human GHS-R1a was “reducing the binding affinity”.
On to `C[C@H](NC(=O)[C@@H](Cc1c[nH]c2ccccc12)NC(=O)[C@@H](N)Cc1cnc[nH]1)C(=O)N1CCCN1C(=O)N[C@H](Cc1ccccc1)C(=O)N[C@@H](CCCCN)C(N)=O` [CP-AP-3, His-D-Trp-Ala-azaPro-D-Phe-Lys-NH2] (H-H[dW]A[azaPro][dF]K-NH2), for which the IC50 is > 10000 nM on CD36 (setting [4]) and > 10000 nM on human GHS-R1a (Table 5, read-out: IC50 Binding GHS-R1a).
As for `CC(C)CN(NC(=O)[C@@H](Cc1c[nH]c2ccccc12)NC(=O)[C@H](C)N)C(=O)N[C@@H](Cc1c[nH]c2ccccc12)C(=O)N[C@H](Cc1ccccc1)C(=O)N[C@@H](CCCCN)C(N)=O` [CP-2B (v), Ala-D-Trp-azaLeu-Trp-D-Phe-Lys-NH2] (H-A[dW][azaLeu]W[dF]K-NH2), on CD36 (setting [4]), the IC50 worked out at 3680 nM. The “binding activity/affinity” value at CD36 is “retained significant activity similar to the parent peptide”; on CD36 (listed as CP-2B(v)), “without major change”. For the same compound, on human GHS-R1a, the “binding affinity for GHS-R1a receptor in words” value was “decreased drastically”.

Values taken from US9708370B2, “Azapeptides as CD36 binding compounds” (VALORISATION-RECHERCHE, LIMITED PARTNERSHIP, priority 2007, dated 2017).
